Laboratory results from US9566265B2, “Carbazole compounds and therapeutic uses of the compounds” (Incuron, LLC, priority 2008, dated 2017).

Tests used:
Topo II [1] = experiment: Topo II inhibition in vitro (Table I); type: biochemical
γH2AX = γH2AX staining (Table I); type: cell-based
Chk1/2 = Chk1/2 phosphorylation (Table I); type: cell-based
Topo II [2] = experiment: Topo II inhibition in cells (Table I); type: cell-based
[3] = tested on: thirteen cancer cell lines; experiment: relative cell survival of cancer cell lines, methylene blue staining (FIG. 11); type: cell-based; details: 24 hours treatment, then compound-free medium
Protocol: FIG. 11 contains plots of concentration of Compound 100 (μM) vs. relative cell survival for thirteen cancer cell lines showing that a present carbazole compound is an effective agent against numerous types of cancer;
Each of the cell lines presented in FIG. 11 was seeded into 96 well plates. The next day, cells were treated with a range of concentrations of Compound 100. Treatment occurred for 24 hours, at which time compound-filled medium was replaced with compound-free medium and cells were allowed to grow until the control wells, which were treated with only vehicle control (DMSO), reached a monolayer (typically within 48 hours). Cells then were fixed and stained with 0.5% methylene blue in 50% methanol. The dye was eluted with 1% SDS and the absorbance measured at 650 nm. Data is presented as the absorbance at 650 nm versus the concentration of Compound 100.

ATM/ATR = ATM/ATR activation (Table I); type: cell-based
p53 = p53 activation assay, p53 responsive luciferase reporter cell line; type: cell-based, human; details: Homo sapiens, 16 h, HT1080-L or RCC45ConALuc reporter cells, 16 h; read-out: EC50 value (p53 activation)
Protocol: The potency of a present carbazole compound is determined by measuring an ability of the compound to inhibit NF-κB activity or to activate p53. […] Theoretically, such assays of the dose-response effect of activator compounds can be described as a sigmoidal curve expressing a degree of activation as a function of concentration. The curve also theoretically passes through a point at which the concentration is sufficient to increase activity to a level that is 50% that of the difference between a baseline and the maximal activity in the assay. […] Determination of an EC50 value is made using conventional biochemical (acellular) assay techniques or cell-based assay techniques.
The potency of a carbazole compound is determined by measuring an ability of the compound to activate p53.
The p53 activation assay for determination of the EC50 value was performed as follows:
HT1080-L (human fibrosarcoma cells with ConALuc reporter)
RCC45ConALuc (human renal cell carcinoma cell line with ConALuc reporter)
1. Two types of standard cells were used, either HT1080-L or RCC45ConALuc cells. Both cell lines stably express a p53 responsive luciferase reporter construct.
2. HT1080-L cells were grown in DMEM medium containing 10% FBS. RCC45ConALuc cells were grown in RPMI medium containing 10% FBS (Pen/Strep can be added to a final concentration of 1%, if desired). Both cell lines were grown in a humidified incubator at 37° C. with 5% CO2. For normal culturing, both cell lines were split using 1× trypsin-EDTA at a ratio of 1:20 for HT1080-L and 1:5 for RCC45ConALuc cells every 3-4 days (when cells are 80-90% confluent).
3. A day before the experiment, the cells are trypsinized for about 5 minutes in 1× tripsin/EDTA solution in 37° C. incubator and plated in 96 well plates. HT1080-L cells were seeded at a density of 1×10^4/well in standard DMEM medium in a volume of 50 μl. RCC45ConALuc were seeded at a density of 2×10^4/well in the volume of 50 uL in standard RPMI medium.
4. The next day, various carbazole compounds were prepared by dilution of stock solutions in standard DMEM medium such that the cells were treated with the final chemical concentrations in Table 1 below. Stock solutions were made up in DMSO. Typically, chemicals were made up as 20 mM stock solutions.
5. Each tested compound used two rows of a 96-well plate, thus four compounds (e.g., W, X, Y, Z) were tested in one plate simultaneously. In addition to test compounds, each plate included positive and negative controls. As positive control, 9aa was used at a dose of 3 μM. As a negative control, DMSO was used in final concentration 0.1%.
1. Dilutions of chemicals added to the plate were made up as 2× concentrations in standard DMEM and added to corresponding well in a volume of 50 μl.
2. Chemicals were diluted in standard DMEM by two time serial dilutions starting from 40 μM (2× of highest concentration, e.g., 20 μM). For one cell line, the minimum volume was 125 μL of 2× working solution of chemical of each concentration in standard DMEM.
4. Sixteen hours following compound addition, all wells with the highest concentrations of compounds are checked microscopically for the presence of toxic effect, because death of cells caused by compounds may not allow detecting luciferase activity. If cytotoxocity is evident, other doses of the same compounds were checked for the presence of toxicity. The lowest dose causing toxic effect was recorded.
5. After microscopic examination, 15 μl of Bright Glo luciferase assay system were added to each well and after 5 min incubation at RT, the plates were read on a 96 well plate luminometer with a measurement time of 0.1 sec. A shaking step was included before measurement.
6. The folds of luciferase activation for each concentration of each chemical were calculated by dividing the detected luciferase activity at each chemical concentration by the average of the luciferase activity for the DMSO control on the same plate.

In the case of `CCN(CC)CCn1c2ccc([N+](=O)[O-])cc2c2cc([N+](=O)[O-])ccc21` [Compound 100], the “Topo II inhibition in vitro” value (Topo II [1]) is reported as “ligation”, the γH2AX staining (γH2AX) is reported as “no” and the Chk1/2 phospho (Chk1/2) is reported as “no”. The “Topo II inhibition in cells” value (Topo II [2]) was “no”, the “anti-cancer activity against tested cancer cells” value [3] was “significant anti-cancer activity” and the Ames test (Ames test) was “negative”. For the same molecule, the ATM/ATR activation (ATM/ATR) was “no” and the EC50 (p53) was 1.3 µM.
